Our source for the MIC and Activity values is ChEMBL document CHEMBL1649145, “Interactions between triazoles and amphotericin B in treatment of disseminated murine infection by Fusarium oxysporum” (2009).

≈ marks a conversion by molar mass, not a printed value. Calls of active or inactive are those of the source. The calls are words filed in the database; no cut-off is given here.

The subject of assay [1] is Fusarium oxysporum. Put plainly: Antimicrobial activity against Fusarium oxysporum FMR 5205 by microdilution method. Format: functional. (In general: Broth dilution looks for growth in wells or tubes with falling amounts of substance.)
Assay [2] deals with Fusarium oxysporum. Put plainly: Antimicrobial activity against 1X 10^7 CFU Fusarium oxysporum FMR 10281 infected in immunosuppressed-OF1 mouse assessed as prolonged survival of mouse at 3 mg/kg, ip administered 1 day post infection measured 20 days post […] infection. Details: dose 3 mg/kg. Format: functional, organism-based.
Assay [3] relates to Fusarium oxysporum. Put plainly: Antimicrobial activity against Fusarium oxysporum FMR 10281 by microdilution method in presence of voriconazole. Format: functional.
Assay [4] concerns Fusarium oxysporum. Description: Antimicrobial activity against Fusarium oxysporum FMR 5205 by microdilution method in presence of voriconazole. Format: functional.
Assay [5] has as its system Fusarium oxysporum. Put plainly: Antimicrobial activity against Fusarium oxysporum FMR 10281 by microdilution method in presence of posaconazole. Format: functional.
In assay [6] the test system is Fusarium oxysporum. Description: Antimicrobial activity against Fusarium oxysporum FMR 10281 by microdilution method. Format: functional.
Assay [7] concerns Fusarium oxysporum. Description: Antimicrobial activity against Fusarium oxysporum FMR 5205 by microdilution method in presence of posaconazole. Format: functional.
Assay [8] relates to Fusarium oxysporum. Description: Antimicrobial activity against 1X 10^7 CFU Fusarium oxysporum FMR 5205 infected in immunosuppressed-OF1 mouse assessed as reduction in kidney fungal burden at 100 mg/kg, po administered 1 day post infection measured on day 6 post dosing. Format: functional, organism-based. Details: dose 100 mg/kg.
The subject of assay [9] is Fusarium oxysporum. Description: Antimicrobial activity against 1X 10^7 CFU Fusarium oxysporum FMR 10281 infected in immunosuppressed-OF1 mouse assessed as prolonged survival of mouse at 100 mg/kg, po administered 1 day post infection measured 20 days post […] infection. Details: dose 100 mg/kg. Format: functional, organism-based.
In assay [10] the test system is Fusarium oxysporum. Put plainly: Antimicrobial activity against 1X 10^7 CFU Fusarium oxysporum FMR 10281 infected in immunosuppressed-OF1 mouse assessed as reduction in spleen fungal burden at 100 mg/kg, po administered 1 day post infection measured on day 6 post dosing. Format: functional, organism-based. More on the design: dose 100 mg/kg.
Assay [11] deals with Fusarium oxysporum. Description: Antimicrobial activity against 1X 10^7 CFU Fusarium oxysporum FMR 5205 infected in immunosuppressed-OF1 mouse assessed as reduction in spleen fungal burden at 100 mg/kg, po administered 1 day post infection measured on day 6 post dosing. Format: functional, organism-based. More on the design: dose 100 mg/kg.
Assay [12] concerns Fusarium oxysporum. Put plainly: Antimicrobial activity against 1X 10^7 CFU Fusarium oxysporum FMR 10281 infected in immunosuppressed-OF1 mouse assessed as prolonged survival of mouse at 60 mg/kg, po administered 1 day post infection measured 20 days post […] infection. Format: functional, organism-based. More on the design: dose 60 mg/kg.
The test system of assay [13] is Fusarium oxysporum. Put plainly: Antimicrobial activity against 1X 10^7 CFU Fusarium oxysporum FMR 5205 infected in immunosuppressed-OF1 mouse assessed as reduction in kidney fungal burden at 60 mg/kg, po administered 1 day post infection measured on day 6 post dosing. Format: functional, organism-based. More on the design: dose 60 mg/kg.
The subject of assay [14] is Fusarium oxysporum. Put plainly: Antimicrobial activity against 1X 10^7 CFU Fusarium oxysporum FMR 5205 infected in immunosuppressed-OF1 mouse assessed as reduction in spleen fungal burden at 3 mg/kg, ip administered 1 day post infection measured on day 6 post dosing. Format: functional, organism-based. Details: dose 3 mg/kg.
Assay [15] has as its system Fusarium oxysporum. Put plainly: Antimicrobial activity against 1X 10^7 CFU Fusarium oxysporum FMR 10281 infected in immunosuppressed-OF1 mouse assessed as reduction in spleen fungal burden at 3 mg/kg, ip administered 1 day post infection measured on day 6 post dosing. Format: functional, organism-based. Details: dose 3 mg/kg.

On to `C[C@@H]1[C@H](O)[C@@H](C)/C=C/C=C/C=C/C=C/C=C/C=C/C=C/[C@H](O[C@@H]2O[C@H](C)[C@@H](O)[C@H](N)[C@@H]2O)C[C@@H]2O[C@](O)(C[C@@H](O)C[C@@H](O)[C@H](O)CC[C@@H](O)C[C@@H](O)CC(=O)O[C@H]1C)C[C@H](O)[C@H]2C(=O)O` [AMPHOTERICIN B], for which the minimal inhibitory concentration (MIC) is 2 µg/mL (≈ 2.16 µM) in [1]; 4 µg/mL in assay [3]; 2 µg/mL in assay [4]; 4 µg/mL in assay [5]; 4 µg/mL (≈ 4.33 µM) in [6]; 2 µg/mL in assay [7]. Moreover, in assay [2], the result was inactive.
As to `CC[C@@H]([C@H](C)O)n1ncn(-c2ccc(N3CCN(c4ccc(OC[C@@H]5CO[C@@](Cn6cncn6)(c6ccc(F)cc6F)C5)cc4)CC3)cc2)c1=O` [POSACONAZOLE], the MIC in assay [1] was 2 µg/mL (≈ 2.85 µM); in [6], more than 16 µg/mL. In addition, the outcome in [8], in [9], in assay [10] and in assay [11] was Active.
Consider `C[C@@H](c1ncncc1F)[C@](O)(Cn1cncn1)c1ccc(F)cc1F` [VORICONAZOLE], for which the outcome in assay [12] was inactive. Besides, the minimum inhibitory concentration (MIC) in [1] turned out to be 4 µg/mL (≈ 11.5 µM); in [6] it was 16 µg/mL (≈ 45.8 µM). For the same molecule, the outcome in [13], in [14] and in assay [15] was Active.

Usually MIC stands for the least concentration at which growth counts as inhibited.
